In patent US20070054926A1 (priority 2003, published 2007):
Like-named read-outs stand apart in the source and are kept apart here.

Test system: Phytophthora infestans
Type: in vivo
Details: individual active compound, protective, assessed 6 days after infection

CC1CCN(c2c(-c3c(F)cc(F)cc3F)c(Cl)nc3ncnn23)CC1 [compound I, 5-chloro-7-(4-methylpiperidin-1-yl)-6-(2,4,6-trifluorophenyl)-[1,2,4]triazolo[1,5-a]pyrimidine]
Efficacy in % of the untreated control (4 ppm in the spray liquor): 0%
Efficacy in % of the untreated control (16 ppm in the spray liquor): 10%
Efficacy in % of the untreated control (63 ppm in the spray liquor): 10%

Fc1ccc([C@]2(Cn3cncn3)O[C@H]2c2ccccc2Cl)cc1 (racemic) [compound II, (2RS,3SR)-1-[3-(2-chlorophenyl)-2,3-epoxy-2-(4-fluorophenyl)-propyl]-1H-1,2,4-triazole]
Efficacy in % of the untreated control (16 ppm in the spray liquor): 10%

CC1CCN(c2c(-c3c(F)cccc3Cl)c(Cl)nc3ncnn23)CC1 [A]
Efficacy in % of the untreated control (4 ppm in the spray liquor): 0%
Efficacy in % of the untreated control (16 ppm in the spray liquor): 0%
Efficacy in % of the untreated control (63 ppm in the spray liquor): 0%

C[C@H](Nc1c(-c2c(F)cc(F)cc2F)c(Cl)nc2ncnn12)C(F)(F)F [B]
Efficacy in % of the untreated control (4 ppm in the spray liquor): 0%
Efficacy in % of the untreated control (16 ppm in the spray liquor): 0%
Efficacy in % of the untreated control (63 ppm in the spray liquor): 10%
